Experimental data reported in US20150105252A1, “SUBSTITUTED PYRAZOLES AS HERBICIDES” (E I DU PONT DE NEMOURS AND COMPANY, priority 2013, published 2015).

Assays:
crabgrass, large [1] = test: Test A postemergence; type: in vivo, Digitaria sanguinalis
How it was run: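 Visual injury ratings, 0 = no effect to 100 = complete control, taken about 10 days after treatment against untreated controls. Test chemicals, in a non-phytotoxic surfactant-containing solvent, were sprayed onto soil preemergence or onto one- to two-leaf plants (2–10 cm) postemergence, in loam–sand soil under greenhouse conditions.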

wheat = test: Test C preemergence; type: in vivo, Triticum aestivum
How it was run: (§1)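 Greenhouse pot test: preemergence application onto freshly seeded loam/sand mix, postemergence application onto seedlings (1–4 leaves, 2–18 cm) in peat-vermiculite substrate. Responses scored visually 13 to 15 days later relative to controls, where 0 means no effect and 100 means complete control; a dash indicates no result.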

galium = test: Test C preemergence; type: in vivo, Galium aparine
How it was run: as §1

johnsongrass [2] = test: Test C preemergence; type: in vivo, Sorghum halepense
How it was run: as §1

lambsquarters = test: Test C preemergence; type: in vivo, Chenopodium album
How it was run: as §1

soybean = test: Test C preemergence; type: in vivo, Glycine max
How it was run: as §1

barnyardgrass = test: Test C preemergence; type: in vivo, Echinochloa crus-galli
How it was run: as §1

oilseed rape = test: Test C preemergence; type: in vivo, Brassica napus
How it was run: as §1

velvetleaf [3] = test: Test C preemergence; type: in vivo, Abutilon theophrasti
How it was run: as §1

blackgrass = test: Test C postemergence; type: in vivo, Alopecurus myosuroides; conditions: for Plant response rating (scale of 0 to 100 where 0 is no effect and 100 is complete control), Blackgrass: 31 g ai/ha, visually evaluated after 13 to 15 days; for Blackgrass plant response rating / Plant response rating, Blackgrass: postemergence; for Blackgrass plant response rating: 62 g ai/ha, scale 0 to 100
How it was run: as §1

crabgrass, large [4] = test: Test C postemergence; type: in vivo, Digitaria sanguinalis; conditions: for Plant response rating (scale of 0 to 100 where 0 is no effect and 100 is complete control), Crabgrass, Large: 31 g ai/ha, visually evaluated after 13 to 15 days; for Crabgrass, Large plant response rating / Plant response rating, Crabgrass, Large: postemergence; for Crabgrass, Large plant response rating: 62 g ai/ha, scale 0 to 100
How it was run: as §1

johnsongrass [5] = test: Test C postemergence; type: in vivo, Sorghum halepense; conditions: for Plant response rating (scale of 0 to 100 where 0 is no effect and 100 is complete control), Johnsongrass: 31 g ai/ha, visually evaluated after 13 to 15 days; for Johnsongrass plant response rating / Plant response rating, Johnsongrass: postemergence; for Johnsongrass plant response rating: 62 g ai/ha, scale 0 to 100
How it was run: as §1

morningglory = test: Test C postemergence; type: in vivo, Ipomoea coccinea; conditions: for Plant response rating (scale of 0 to 100 where 0 is no effect and 100 is complete control), Morningglory: 31 g ai/ha, visually evaluated after 13 to 15 days; for Morningglory plant response rating / Plant response rating, Morningglory: postemergence; for Morningglory plant response rating: 62 g ai/ha, scale 0 to 100
How it was run: as §1

velvetleaf [6] = test: Test C postemergence; type: in vivo, Abutilon theophrasti; conditions: for Plant response rating (scale of 0 to 100 where 0 is no effect and 100 is complete control), Velvetleaf: 31 g ai/ha, visually evaluated after 13 to 15 days; for Velvetleaf plant response rating / Plant response rating, Velvetleaf: postemergence; for Velvetleaf plant response rating: 62 g ai/ha, scale 0 to 100
How it was run: as §1

chickweed = test: Test C postemergence; type: in vivo, Stellaria media; conditions: for Plant response rating (scale of 0 to 100 where 0 is no effect and 100 is complete control), Chickweed: 31 g ai/ha, visually evaluated after 13 to 15 days; for Chickweed plant response rating / Plant response rating, Chickweed: postemergence; for Chickweed plant response rating: 62 g ai/ha, scale 0 to 100
How it was run: as §1

[7] = Postemergence, 500 g ai/ha, visual rating after approx. 10 days, 0 to 100 scale (0 no effect, 100 complete control)
[8] = postemergence, 125 g ai/ha, about 10 days, visual rating on 0 to 100 scale (0 no effect, 100 complete control)
[9] = preemergence, 31 g ai/ha, visual rating, scale 0 to 100 (0 no effect, 100 complete control), 13 to 15 days
[10] = preemergence, 62 g ai/ha, 13 to 15 days, scale 0 to 100, 0 = no effect, 100 = complete control
[11] = preemergence, 125 g ai/ha, scale 0 to 100, 0 is no effect, 100 is complete control
[12] = preemergence, 31 g ai/ha, scale 0 to 100 (0 no effect, 100 complete control), 13 to 15 days
[13] = 250 g ai/ha, scale 0 to 100 (0 no effect, 100 complete control)
[14] = 125 g ai/ha, scale 0 to 100, 0 no effect, 100 complete control
[15] = Preemergence, 16 g ai/ha, scale 0 to 100

CCc1cc(C(=O)NC2CC2)nn1Cc1ccnc(OC(F)F)c1 [Compound 98]
Crabgrass, Large plant response rating (crabgrass, large [1]; [7]): 90 | Crabgrass, Large plant response rating (crabgrass, large [1]; [8]): 90 | Plant response rating (scale of 0 to 100), Wheat (wheat; Preemergence, 250 g ai/ha): 90 | Wheat plant response rating (wheat; [9]): 30 | Plant response rating, Wheat (wheat; [10]): 45 | Wheat plant response rating (wheat; [11]): 70 | Plant response rating (scale of 0 to 100), Galium (galium; Preemergence, 250 g ai/ha): 100 | Galium plant response rating (galium; [9]): 100 | Plant response rating, Galium (galium; [10]): 100 | Galium plant response rating (galium; [11]): 100 | Plant response rating (scale of 0 to 100), Johnsongrass (johnsongrass [2]; Preemergence, 250 g ai/ha): 100 | Johnsongrass plant response rating (johnsongrass [2]; [9]): 65 | Plant response rating, Johnsongrass (johnsongrass [2]; [10]): 70 | Johnsongrass plant response rating (johnsongrass [2]; [11]): 100 | Plant response rating (scale of 0 to 100), Lambsquarters (lambsquarters; Preemergence, 250 g ai/ha): 100 | Lambsquarters plant response rating (lambsquarters; [9]): 100 | Plant response rating, Lambsquarters (lambsquarters; [10]): 100 | Lambsquarters plant response rating (lambsquarters; [11]): 100 | Plant response rating (scale of 0 to 100), Soybean (soybean; Preemergence, 250 g ai/ha): 98 | Soybean plant response rating (soybean; [9]): 30 | Plant response rating, Soybean (soybean; [10]): 70 | Soybean plant response rating (soybean; [11]): 98 | Plant response rating (scale of 0 to 100), Barnyardgrass (barnyardgrass; Preemergence, 250 g ai/ha): 100 | Barnyardgrass plant response rating (barnyardgrass; [12]): 30 | Plant response rating, Barnyardgrass (barnyardgrass; [10]): 100 | Barnyardgrass plant response rating (barnyardgrass; [11]): 100 | Plant response rating (scale of 0 to 100), Oilseed Rape (oilseed rape; Preemergence, 250 g ai/ha): 100 | Oilseed Rape plant response rating (oilseed rape; [9]): 100 | Plant response rating, Oilseed Rape (oilseed rape; [10]): 100 | Oilseed Rape plant response rating (oilseed rape; [11]): 100 | Plant response rating (scale of 0 to 100), Velvetleaf (velvetleaf [3]; Preemergence, 250 g ai/ha): 100 | Velvetleaf plant response rating (velvetleaf [3]; [9]): 100 | Plant response rating, Velvetleaf (velvetleaf [3]; [10]): 100 | Velvetleaf plant response rating (velvetleaf [3]; [11]): 100 | Plant response rating (scale of 0 to 100 where 0 is no effect and 100 is complete control), Blackgrass (blackgrass; Postemergence): 5 | Blackgrass plant response rating (blackgrass): 5 | Plant response rating, Blackgrass (blackgrass; [13]): 40 | Plant response rating, Blackgrass (blackgrass; [14]): 25 | Plant response rating (scale of 0 to 100 where 0 is no effect and 100 is complete control), Crabgrass, Large (crabgrass, large [4]; Postemergence): 10 | Crabgrass, Large plant response rating (crabgrass, large [4]): 15 | Plant response rating, Crabgrass, Large (crabgrass, large [4]; [13]): 50 | Plant response rating, Crabgrass, Large (crabgrass, large [4]; [14]): 45 | Plant response rating (scale of 0 to 100 where 0 is no effect and 100 is complete control), Johnsongrass (johnsongrass [5]; Postemergence): 0 | Johnsongrass plant response rating (johnsongrass [5]): 5 | Plant response rating, Johnsongrass (johnsongrass [5]; [13]): 20 | Plant response rating, Johnsongrass (johnsongrass [5]; [14]): 5 | Plant response rating (scale of 0 to 100 where 0 is no effect and 100 is complete control), Morningglory (morningglory; Postemergence): 45 | Morningglory plant response rating (morningglory): 50 | Plant response rating, Morningglory (morningglory; [13]): 90 | Plant response rating, Morningglory (morningglory; [14]): 70 | Plant response rating (scale of 0 to 100 where 0 is no effect and 100 is complete control), Velvetleaf (velvetleaf [6]; Postemergence): 15 | Velvetleaf plant response rating (velvetleaf [6]): 20 | Plant response rating, Velvetleaf (velvetleaf [6]; [13]): 50 | Plant response rating, Velvetleaf (velvetleaf [6]; [14]): 20 | Plant response rating (scale of 0 to 100 where 0 is no effect and 100 is complete control), Chickweed (chickweed; Postemergence): 100 | Chickweed plant response rating (chickweed): 100 | Plant response rating, Chickweed (chickweed; [13]): 100 | Plant response rating, Chickweed (chickweed; [14]): 100

CCc1cc(C(=O)NOC(C)C)nn1Cc1ccnc(C(F)(F)F)c1 [Compound 101]
Crabgrass, Large plant response rating (crabgrass, large [1]; [7]): 90 | Crabgrass, Large plant response rating (crabgrass, large [1]; [8]): 80 | Plant response rating, Wheat (wheat; [15]): 0 | Wheat plant response rating (wheat; [9]): 5 | Plant response rating, Wheat (wheat; [10]): 85 | Wheat plant response rating (wheat; [11]): 85 | Plant response rating, Galium (galium; [15]): 80 | Galium plant response rating (galium; [9]): 80 | Plant response rating, Galium (galium; [10]): 80 | Galium plant response rating (galium; [11]): 80 | Plant response rating, Johnsongrass (johnsongrass [2]; [15]): 0 | Johnsongrass plant response rating (johnsongrass [2]; [9]): 20 | Plant response rating, Johnsongrass (johnsongrass [2]; [10]): 40 | Johnsongrass plant response rating (johnsongrass [2]; [11]): 75 | Plant response rating, Lambsquarters (lambsquarters; [15]): 85 | Lambsquarters plant response rating (lambsquarters; [9]): 85 | Plant response rating, Lambsquarters (lambsquarters; [10]): 85 | Lambsquarters plant response rating (lambsquarters; [11]): 95 | Plant response rating, Soybean (soybean; [15]): 0 | Soybean plant response rating (soybean; [9]): 5 | Plant response rating, Soybean (soybean; [10]): 40 | Soybean plant response rating (soybean; [11]): 50 | Plant response rating, Barnyardgrass (barnyardgrass; [15]): 5 | Barnyardgrass plant response rating (barnyardgrass; [12]): 75 | Plant response rating, Barnyardgrass (barnyardgrass; [10]): 100 | Barnyardgrass plant response rating (barnyardgrass; [11]): 100 | Plant response rating, Oilseed Rape (oilseed rape; [15]): 75 | Oilseed Rape plant response rating (oilseed rape; [9]): 90 | Plant response rating, Oilseed Rape (oilseed rape; [10]): 98 | Oilseed Rape plant response rating (oilseed rape; [11]): 100 | Plant response rating, Velvetleaf (velvetleaf [3]; [15]): 0 | Velvetleaf plant response rating (velvetleaf [3]; [9]): 35 | Plant response rating, Velvetleaf (velvetleaf [3]; [10]): 75 | Velvetleaf plant response rating (velvetleaf [3]; [11]): 100 | Plant response rating (scale of 0 to 100), Blackgrass (blackgrass; Postemergence, 16 g ai/ha): 5 | Plant response rating (scale of 0 to 100 where 0 is no effect and 100 is complete control), Blackgrass (blackgrass; Postemergence): 5 | Blackgrass plant response rating (blackgrass): 5 | Plant response rating, Blackgrass (blackgrass; [14]): 15 | Plant response rating (scale of 0 to 100), Crabgrass, Large (crabgrass, large [4]; Postemergence, 16 g ai/ha): 5 | Plant response rating (scale of 0 to 100 where 0 is no effect and 100 is complete control), Crabgrass, Large (crabgrass, large [4]; Postemergence): 5 | Crabgrass, Large plant response rating (crabgrass, large [4]): 15 | Plant response rating, Crabgrass, Large (crabgrass, large [4]; [14]): 20 | Plant response rating (scale of 0 to 100), Johnsongrass (johnsongrass [5]; Postemergence, 16 g ai/ha): 0 | Plant response rating (scale of 0 to 100 where 0 is no effect and 100 is complete control), Johnsongrass (johnsongrass [5]; Postemergence): 5 | Johnsongrass plant response rating (johnsongrass [5]): 5 | Plant response rating, Johnsongrass (johnsongrass [5]; [14]): 5 | Plant response rating (scale of 0 to 100), Morningglory (morningglory; Postemergence, 16 g ai/ha): 60 | Plant response rating (scale of 0 to 100 where 0 is no effect and 100 is complete control), Morningglory (morningglory; Postemergence): 60 | Morningglory plant response rating (morningglory): 65 | Plant response rating, Morningglory (morningglory; [14]): 95 | Plant response rating (scale of 0 to 100), Velvetleaf (velvetleaf [6]; Postemergence, 16 g ai/ha): 10 | Plant response rating (scale of 0 to 100 where 0 is no effect and 100 is complete control), Velvetleaf (velvetleaf [6]; Postemergence): 15 | Velvetleaf plant response rating (velvetleaf [6]): 25 | Plant response rating, Velvetleaf (velvetleaf [6]; [14]): 30 | Plant response rating (scale of 0 to 100), Chickweed (chickweed; Postemergence, 16 g ai/ha): 45 | Plant response rating (scale of 0 to 100 where 0 is no effect and 100 is complete control), Chickweed (chickweed; Postemergence): 50 | Chickweed plant response rating (chickweed): 50 | Plant response rating, Chickweed (chickweed; [14]): 50
